Measurements taken from patent publication US8883473B2, “Methods of treatment using allosteric processing inhibitors for matrix metalloproteinases” (Janssen Pharmaceutica N.V., priority 2011, dated 2014).

Tests used:
[1] = test system: female Lewis rats with SCW-induced arthritis; assay: Efficacy in rats with SCW-induced arthritis (ankle thickness, clinical scores); assay type: in vivo, rat
Protocol: To induce arthritis, Female Lewis (LEW/N) rats, 5-6 weeks of age (80-100 g) were injected (i.p.) with SCW PG-PS as described above. Eighteen days later, arthritis was well established. Calipers were used to measure the width (anterior to posterior surface) of the left and right hind ankles of each rat. Each ankle was measured 3 times and averaged, and treatment groups were randomized based on ankle thickness (Table 6). Commencing on day 18, randomized groups of arthritic rats (n=5 rats/group) received vehicle or 5, 20, or 50 mg/kg Example 2 BID by oral gavage. Vehicle consisted of an aqueous mixture containing 2% (v:v) N-methylpyrrolidone, 5% (v:v) glycerine, and 20% (w:v) captisol. Treatment continued daily through the morning of day 26.
By day 18 mean ankle thickness was increased an average of >4.4 mm compared to disease free rats. Rats treated with vehicle alone continued to gradually develop a more severe arthritis based on ankle thickness measurements over the eight-day treatment period (Table 6). […] By day 26, the disease associated increase in ankle thickness had been reduced 27, 37, and 46 percent by 5, 20, and 50 mg/kg Example 2, respectively.
Hind paw inflammation clinical scores were assigned based on swelling and erythema.

MMP9 = target: T1, MMP9 (Rattus norvegicus, UniProt P50282); assay: Pro and active MMP9 in ankles of rats with SCW-induced arthritis by Western blot; assay type: in vivo; conditions: day 26, four hours after the AM dose, mAb-L51/82
T1 construct: Pro and active MMP9 were abundantly present in ankles of SCW-induced vehicle-treated rats; from tissue; host or cells: tibia-tarsus joints (ankles) of female Lewis rats
Protocol: Hind-limbs were skinned, severed just above the tibia-tarsus joint and below the metatarsals, and the tibia-tarsus joints (ankles) were weighed, snap frozen and pulverized on dry ice using a hammer and anvil. The pulverized tissue was suspended in 3 volumes (w:v) of ice-cold homogenization buffer containing 50 mM Tris pH 7.5, 150 mM NaCl, 5 mM EDTA, 1% Triton X100, 0.05% Brij 30, 10% dimethylsulfoxide and Complete EDTA-free Protease Inhibitor Cocktail (Roche Diagnostics). The suspended tissue was homogenized sequentially with a Kinematica AG Polytron and a Dounce homogenizer. Homogenates were centrifuged at 16,000×g for 10 min at 4° C. and the soluble fractions were saved. Dimethylsulfoxide was removed from a portion of each soluble fraction using PD MiniTrap™ G-25 desalting columns (GE Healthcare). Homogenates (0.25 mL), free of DMSO, were diluted with an equal volume of binding buffer (i.e., homogenization buffer without dimethylsufoxide) and adjusted to contain 50 μL of a 50% slurry of gelatin-conjugated sepharose. Following 2 hours of rotation at 4° C. the beads were washed twice in binding buffer and eluted in 100 μL 2×-reducing Laemmli buffer with heating to 95° C. for 5 minutes. […]

T1 sequence (P50282 108-708): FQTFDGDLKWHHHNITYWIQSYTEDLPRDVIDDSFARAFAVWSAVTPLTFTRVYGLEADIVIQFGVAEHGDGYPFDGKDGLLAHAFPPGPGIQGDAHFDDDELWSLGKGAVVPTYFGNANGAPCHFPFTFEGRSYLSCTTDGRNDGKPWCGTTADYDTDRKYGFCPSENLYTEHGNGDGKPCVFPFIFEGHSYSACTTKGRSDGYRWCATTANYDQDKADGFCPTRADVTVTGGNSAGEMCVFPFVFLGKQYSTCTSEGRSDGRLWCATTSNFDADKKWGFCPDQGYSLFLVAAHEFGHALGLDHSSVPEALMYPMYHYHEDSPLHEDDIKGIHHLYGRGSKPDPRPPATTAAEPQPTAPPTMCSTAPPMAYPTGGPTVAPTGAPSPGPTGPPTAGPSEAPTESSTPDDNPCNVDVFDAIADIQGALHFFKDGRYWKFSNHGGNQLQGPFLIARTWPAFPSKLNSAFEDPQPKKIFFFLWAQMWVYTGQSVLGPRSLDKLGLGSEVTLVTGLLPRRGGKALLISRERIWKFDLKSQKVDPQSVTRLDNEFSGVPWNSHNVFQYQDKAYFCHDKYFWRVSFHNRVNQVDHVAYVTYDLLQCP

abundance of proMMP9 in ankles (MMP9): did not reduce
SMILES: Cc1nc(C)c(-c2csc(Nc3cc(S(N)(=O)=O)ccc3OC(C)C)n2)s1 [Example 2, 3-(2′,4′-Dimethyl-[4,5′]bithiazolyl-2-ylamino)-4-isopropoxy-benzenesulfonamide.HBr]
ankle thickness measurements ([1]; 5, 20, 50 mg/kg BID oral gavage Day 18-26): dose-dependent decrease | clinical score measurements ([1]; 5, 20, 50 mg/kg BID, significant effects emerging at the 20 mg/kg dose): dose dependent decrease
